From article PMC7578299, “The antiviral effects of baloxavir marboxil against influenza A virus infection in ferrets” (Influenza and Other Respiratory Viruses, 2020)
“And” between values parts separate entries of the source, which are not always exact repeats. Identical values can stand only once.

Tests used:
[1] = Metabolic stability test, control (microsome free); format: in vitro ADME; details: microsome free; for % Residual, Control (Microsome free): 2 μmol/L, 37°C, mean of duplicates; for % Residual Individual value, Control (Microsome free): duplicates
Experimental: (§1) Liver microsomes were prepared from ferrets, rats, dogs, and monkeys, as previously described. ^28 Human liver microsomes were obtained from Sekisui‐XenoTech, LLC and pooled (n = 15). Metabolic stability of the compounds in liver microsomes was tested in duplicate. Oseltamivir and cefcapene pivoxil were used as reference compounds. Liver microsomes at 0.5 mg/mL concentration (final volume of 0.2 mL) were incubated in Tris‐HCl buffer (pH 7.4), containing 50 mmol/L Tris‐HCl, 150 mmol/L KCl, 10 mmol/L MgCl2. The hydrolysis reaction was initiated by applying the test compound solution (final concentration 2 μmol/L). After incubation for 10, 20, and 30 minutes at 37°C, the hydrolysis was terminated by the addition of twofold volume of ice‐cold acetonitrile/methanol (1:1, v/v). Samples were centrifuged at 3000 rpm for 10 minutes prior to LC‐MS/MS analysis of compounds in the supernatants.

[2] = Metabolic stability in liver microsomes, human; format: in vitro ADME; details: for % Residual in liver microsome: 0.5 mg/mL, 2 μmol/L, 37°C, mean of duplicates; for % Residual in liver microsome Individual value: duplicates
Experimental: as §1

[3] = system: cap-dependent endonuclease (CEN); set-up: method as in PMID 30316915; details: in vitro studies; cited from earlier work
[4] = Metabolic stability in liver microsomes, monkey; format: in vitro ADME; details: monkey; for % Residual in liver microsome: 0.5 mg/mL, 2 μmol/L, 37°C, mean of duplicates; for % Residual in liver microsome Individual value: duplicates
Experimental: as §1

Which “% Residual, Control (Microsome free)” value ([1]; 10 min) does the source give for `COC(=O)OCOc1c2n(ccc1=O)N([C@@H]1c3ccccc3SCc3c1ccc(F)c3F)[C@@H]1COCCN1C2=O` [BXM, Baloxavir marboxil] here?
Its value is 81.3%.

And the “% Residual, Control (Microsome free)” value ([1]; 20 min)?
Its value is 81.7%.

And the “% Residual, Control (Microsome free)” value ([1]; 30 min)?
The value was 92.1%.

What about the “% Residual Individual value, Control (Microsome free)” value ([1]; 10 minutes) of the same molecule?
The value was 72.2% and 90.3%.

And the “% Residual Individual value, Control (Microsome free)” value ([1]; 20 minutes)?
Its value is 81.2% and 82.1%.

And the “% Residual Individual value, Control (Microsome free)” value ([1]; 30 minutes)?
Its value is 86.1% and 98.1%.

And the “% Residual in liver microsome” value ([2]; 10 min)?
The value was 8.2%.

And the “% Residual in liver microsome” value ([2]; 20 min)?
The value was 0.3%.

And the “% Residual in liver microsome” value ([2]; 30 min)?
Its value is 0.0%.

What about the “% Residual in liver microsome Individual value” ([2]; 10 minutes) of the same molecule?
Its value is 8.4% and 8.0%.

What about the “% Residual in liver microsome Individual value” ([2]; 20 minutes) of the same molecule?
Its value is 0.3% and 0.2%.

And the “% Residual in liver microsome Individual value” ([2]; 30 minutes)?
Its value is 0.0%.

What about the “CEN inhibitory activity, fold lower than that of BXA” value [3] of the same molecule?
The value was ≥ 200 fold.

And the “% Residual in liver microsome” value ([4]; 10 min)?
Its value is 0.0%.

And the “% Residual in liver microsome” value ([4]; 20 min)?
Its value is 0.0%.

What about the “% Residual in liver microsome” value ([4]; 30 min) of the same molecule?
The value was 0.0%.

What about the “% Residual in liver microsome Individual value” ([4]; 10 minutes) of the same molecule?
The value was 0.0%.

And the “% Residual in liver microsome Individual value” ([4]; 20 minutes)?
The value was 0.0%.

What about the “% Residual in liver microsome Individual value” ([4]; 30 minutes) of the same molecule?
The value was 0.0%.
